In assay [1] the test system is Staphylococcus aureus. The assay can be described thus: Antibacterial activity against methicillin-resistant Staphylococcus aureus incubated for 24 hrs by CLSI based microdilution method. It counts as functional. (In general: In broth dilution the organism is exposed to a series of concentrations in liquid medium.)
The subject of assay [2] is Enterococcus faecalis. The assay can be described thus: Antibacterial activity against vancomycin-resistant Enterococcus faecalis ATCC 51299 incubated for 24 hrs by CLSI based microdilution method. The assay is classed as functional.
In assay [3] the test system is Enterococcus faecalis. Kind of assay: Antibacterial activity against vancomycin-resistant Enterococcus faecalis ATCC 51299 assessed as bacterial growth inhibition at 0.5 to 4 times MIC measured after 12 hrs by absorbance based assay. It counts as functional, organism-based.
The test system of assay [4] is Enterococcus faecalis. Kind of assay: Antibacterial activity against vancomycin-resistant Enterococcus faecalis ATCC 51299 infected in specific pathogen-free Kunming mouse model of abdominal infection assessed as reduction in bacterial load in liver at 10 mg/kg, ip measured after 72 hrs by plate counting method. The assay is classed as functional, organism-based.
Assay [5] concerns Enterococcus faecalis. Kind of assay: Antibacterial activity against vancomycin-resistant Enterococcus faecalis ATCC 51299 infected in specific pathogen-free Kunming mouse model of abdominal infection assessed as reduction in bacterial load in spleen at 10 mg/kg, ip measured after 72 hrs by plate counting method. The assay is classed as functional, organism-based.
Assay [6] has as its system Enterococcus faecalis. Kind of assay: Antibacterial activity against vancomycin-resistant Enterococcus faecalis ATCC 51299 infected in specific pathogen-free Kunming mouse model of abdominal infection assessed as reduction in bacterial load in abdominal effusion at 10 mg/kg, ip measured after 72 hrs by plate counting method. The assay is classed as functional, organism-based.

For assay [7], the system named is Staphylococcus aureus. Kind of assay: Antibacterial activity against Staphylococcus aureus assessed as bacterial growth inhibition at 0.5 to 4 times MIC measured for 4 hrs by absorbance based assay. It counts as functional, organism-based.
Assay [8] has as its system Enterococcus faecalis. The assay can be described thus: Disruption of morphology in vancomycin-resistant Enterococcus faecalis ATCC 51299 at 4 times MIC incubated for 18 hrs by SEM analysis. It counts as functional, organism-based.
Assay [9] concerns Enterococcus faecalis. Kind of assay: Antibacterial activity against vancomycin-resistant Enterococcus faecalis ATCC 51299 infected in specific pathogen-free Kunming mouse model of abdominal infection assessed as reduction in bacterial load in kidney at 10 mg/kg, ip measured after 72 hrs by plate counting method. The assay is classed as functional, organism-based.
The test system of assay [10] is Enterococcus faecalis. Kind of assay: Disruption of membrane integrity in vancomycin-resistant Enterococcus faecalis ATCC 51299 at 2 times MIC incubated for 2 hrs by PI staining based CLSM analysis. It counts as functional, organism-based.
The test system of assay [11] is Enterococcus faecalis. Kind of assay: Disruption of membrane integrity in vancomycin-resistant Enterococcus faecalis ATCC 51299 at 2 times MIC incubated for 2 hrs by SYTOX Green staining based CLSM analysis. The assay is classed as functional, organism-based.
The subject of assay [12] is Enterococcus faecalis. The assay can be described thus: Disruption of membrane integrity in vancomycin-resistant Enterococcus faecalis ATCC 51299 at 2 times MIC incubated for 2 hrs by Hoechst staining based CLSM analysis. The assay is classed as functional, organism-based.
Assay [13] concerns Enterococcus faecalis. The assay can be described thus: Induction of resistance development in vancomycin-resistant Enterococcus faecalis ATCC 51299 assessed as fold increase in activity at sub-MIC measured after 4 days of continuous passages relative to control. The assay is classed as functional. To be noted: time 4 day.
The test system of assay [14] is Enterococcus faecalis. Kind of assay: Induction of resistance development in vancomycin-resistant Enterococcus faecalis ATCC 51299 at sub-MIC measured after 20 days of continuous passages. It counts as functional, organism-based. To be noted: time 20.0 day.

For orientation: MIC means the least concentration at which growth counts as inhibited.

≈ marks a conversion by molar mass, not a printed value. Calls of active or inactive are those of the source. The rule behind the calls is not given here.

In the case of `CC(C)=CCc1c(O)c(CC=C(C)C)c2oc3c(O)cccc3c(=O)c2c1O` [8-DEOXYGARTANIN], the minimal inhibitory concentration (MIC) in the assay with Staphylococcus aureus [1] and in the assay on Enterococcus faecalis [2] was greater than 16 µg/mL each time.
Regarding `CN[C@H](CC(C)C)C(=O)N[C@H]1C(=O)N[C@@H](CC(N)=O)C(=O)N[C@H]2C(=O)N[C@H]3C(=O)N[C@H](C(=O)N[C@H](C(=O)O)c4cc(O)cc(O)c4-c4cc3ccc4O)[C@H](O)c3ccc(c(Cl)c3)Oc3cc2cc(c3O[C@@H]2O[C@H](CO)[C@@H](O)[C@H](O)[C@H]2O[C@H]2C[C@](C)(N)[C@H](O)[C@H](C)O2)Oc2ccc(cc2Cl)[C@H]1O`, in the assay on Enterococcus faecalis [3], the inhibition result is “inactive”.
Turning to `C=C(C)C1CC[C@]2(C)CC1c1c(O)c3c(c(CC=C(C)C)c1O2)O[C@]12C(=C[C@@H]4CC1C(C)(C)OC2(C/C=C(\C)C(=O)O)C4=O)C3=O` (stereo partly drawn), the minimum inhibitory concentration (MIC) with Staphylococcus aureus [1] and with Enterococcus faecalis [2] was greater than 16 µg/mL throughout.
For the compound `COc1cc2oc3cc(OC)c(OC)c(CC=C(C)C)c3c(=O)c2c(O)c1CC=C(C)C`, the minimum inhibitory concentration (MIC) against Staphylococcus aureus [1] and against Enterococcus faecalis [2] was greater than 16 µg/mL in each case.
Turning to `CC1(C)S[C@@H]2[C@H](NC(=O)[C@H](N)c3ccccc3)C(=O)N2[C@H]1C(=O)O` [AMPICILLIN], the outcome in the assay on Enterococcus faecalis [4], with Enterococcus faecalis [5], in the assay with Enterococcus faecalis [6], in the assay with Enterococcus faecalis [8] and in the assay on Enterococcus faecalis [9] was Active. For the same compound, the inhibition result in the assay on Staphylococcus aureus [7] is “Active”. The same compound gave an MIC against Enterococcus faecalis [2] of 4 µg/mL (≈ 11.4 µM).
Compound `CO[C@@]1(NC(=O)Cc2cccs2)C(=O)N2C(C(=O)O)=C(COC(N)=O)CS[C@@H]21` [CEFOXITIN] displayed an MIC in the assay on Staphylococcus aureus [1] greater than 16 µg/mL.
For the compound `CC(C)=CCc1c(O)cc2oc3cc(O)c(O)c(CC=C(C)C)c3c(=O)c2c1O`, the MIC in the assay with Staphylococcus aureus [1] and against Enterococcus faecalis [2] was 4 µg/mL (≈ 10.1 µM) each time.
Consider `CC[C@H](C)[C@H](NC(=O)CN)C(=O)NCC(=O)N[C@@H](C)C(=O)N[C@H](C(=O)N[C@@H](CC(C)C)C(=O)N[C@@H](CCCCN)C(=O)N[C@H](C(=O)N[C@@H](CC(C)C)C(=O)N[C@H](C(=O)N[C@H](C(=O)NCC(=O)N[C@@H](CC(C)C)C(=O)N1CCC[C@H]1C(=O)N[C@@H](C)C(=O)N[C@@H](CC(C)C)C(=O)N[C@H](C(=O)N[C@@H](CO)C(=O)N[C@@H](Cc1c[nH]c2ccccc12)C(=O)N[C@H](C(=O)N[C@@H](CCCCN)C(=O)N[C@@H](CCCNC(=N)N)C(=O)N[C@@H](CCCCN)C(=O)N[C@@H](CCCNC(=N)N)C(=O)N[C@@H](CCC(N)=O)C(=O)N[C@@H](CCC(N)=O)C(N)=O)[C@@H](C)CC)[C@@H](C)CC)[C@@H](C)O)[C@@H](C)O)C(C)C)C(C)C`, for which the result in the assay on Enterococcus faecalis [10], in the assay on Enterococcus faecalis [11] and in the assay with Enterococcus faecalis [12] was Active.
In the case of `COc1c(O)cc2oc3cc(O)c(CC=C(C)C)c(O)c3c(=O)c2c1CC=C(C)C` [MANGOSTIN], the minimal inhibitory concentration (MIC) against Staphylococcus aureus [1] and with Enterococcus faecalis [2] was 4 µg/mL (≈ 9.75 µM) in each case.
In the case of `CC(C)=CCC[C@]1(C)CC(O)c2c(O)c3c(c(CC=C(C)C)c2O1)O[C@]12C(=C[C@@H]4C[C@H]1C(C)(C)O[C@@]2(C/C=C(/C)C(=O)O)C4=O)C3=O` (stereo partly drawn), the MIC against Staphylococcus aureus [1] came to 8 µg/mL (≈ 12.4 µM); in the assay on Enterococcus faecalis [2], 16 µg/mL (≈ 24.7 µM).
In the case of `COc1c(O)cc2oc3cc(O)c(CCC(C)(C)O)c(O)c3c(=O)c2c1CC=C(C)C`, the minimal inhibitory concentration (MIC) against Staphylococcus aureus [1] and against Enterococcus faecalis [2] was 16 µg/mL (≈ 37.3 µM) throughout.
In the case of `COc1cc2oc3cc(O)c(OC)c(CC=C(C)C)c3c(=O)c2c(O)c1CC=C(C)C`, the MIC was greater than 16 µg/mL in the assay with Staphylococcus aureus [1] and 16 µg/mL (≈ 37.7 µM) in the assay on Enterococcus faecalis [2].
For `COc1c(O)cc2oc3cc(O)c(CC=C(C)C)c(O)c3c(=O)c2c1CCC(C)(C)O` [GARCINONE D], the results for the minimal inhibitory concentration (MIC) against Staphylococcus aureus [1] and in the assay on Enterococcus faecalis [2] were 8 µg/mL (≈ 18.7 µM) and 4 µg/mL (≈ 9.34 µM), respectively.
Consider `CC(C)=CCc1c(O)c(CC=C(C)C)c2oc3c(O)ccc(O)c3c(=O)c2c1O` [GARTANIN], for which the minimum inhibitory concentration (MIC) in the assay on Staphylococcus aureus [1] and in the assay on Enterococcus faecalis [2] was greater than 16 µg/mL each time.
Regarding `CCCCCCCCCC(=O)N[C@@H](Cc1c[nH]c2ccccc12)C(=O)N[C@@H](CC(N)=O)C(=O)N[C@@H](CC(=O)O)C(=O)N[C@@H]1C(=O)NCC(=O)N[C@@H](CCCN)C(=O)N[C@@H](CC(=O)O)C(=O)N[C@H](C)C(=O)N[C@@H](CC(=O)O)C(=O)NCC(=O)N[C@H](CO)C(=O)N[C@@H]([C@@H](C)CC(=O)O)C(=O)N[C@@H](CC(=O)c2ccccc2N)C(=O)O[C@@H]1C`, the “fold change (FC)” value in the assay with Enterococcus faecalis [13] was 32. Also, the result in the assay on Enterococcus faecalis [14] was inactive.
On to `CC(C)=CCC[C@]1(C)C=Cc2c(O)c3c(c(CC=C(C)C)c2O1)O[C@]12C(=C[C@@H]4C[C@H]1C(C)(C)O[C@@]2(C/C=C(/C)C(=O)O)C4=O)C3=O` [GAMBOGIC ACID], for which the MIC against Staphylococcus aureus [1] and against Enterococcus faecalis [2] was 4 µg/mL (≈ 6.36 µM) in each case.
As to `CC(C)=CCc1c(O)cc2oc3cc(O)c(O)c(CCC(C)(C)O)c3c(=O)c2c1O`, the minimum inhibitory concentration (MIC) against Staphylococcus aureus [1] was 4 µg/mL (≈ 9.65 µM); with Enterococcus faecalis [2], greater than 16 µg/mL.

(Values after ChEMBL document CHEMBL6092170, “Activity of the Caged Xanthone Morellic Acid against Vancomycin-Resistant Enterococcus Infection by Targeting the Bacterial Membrane” (2024).)
